Reference: PMC12040169 (PLOS Biology, 2025)

Experiment: in vitro
Details: human, hela cells, % viability

In order of falling viability at 28.5 h, 10 µM:
1. CC(O)(CC(=O)O)C12CC3CC(CC(C3)C1)C2 (centres unmarked) [CBK261245]  114%
2. CC(C)(C)NC(=O)Cn1cncc1-c1ccc2c(c1)CC(C)(C)O2 [CBK281980]  113%
3. O=C(NCc1cccc2ccccc12)N1CCCC(CO)C1 (centres unmarked) [CBK156035]  112%
4. c1ccc(Oc2ccc(Nc3cccc(-c4ccc5ccccc5c4)n3)cc2)cc1 [CBK037636]  112%
5. CC(C)c1nsc(NS(=O)(=O)Cc2ccccc2)n1 [CBK051188]  112%
6. COc1ccccc1CC(C)NC(=O)CC1CCN(c2nc(C)cc(C)n2)CC1 (centres unmarked) [CBK285956]  111%
7. CCN(CC)Cc1cc(C(C)(C)C)oc1C(=O)O [CBK266013C]  110%
8. CCOc1cccc(CNc2nn[nH]n2)c1OCc1ccc(C)cc1 [CBK288127]  110%
9. CC(C)Cn1c(=O)[nH]c2ncc(-c3ccc(C(=O)NC4CCCC4)cc3)nc21 [CBK064551]  108%
10. OCCN1CCN(c2cncc(-c3cccc(OC(F)(F)F)c3)n2)CC1 [CBK065941]  108%
11. Cc1csc2ncc(C(=O)Nc3ccc(OC(F)(F)F)cc3)c(=O)n12 [CBK287457]  108%
12. O=C(Nc1ccc(-c2nc3ccccc3o2)c(O)c1)c1ccc(-c2ccc([N+](=O)[O-])cc2)o1 [CBK263416]  108%
13. COc1cc(-c2nc(NC(=O)C(C)C)cc3ccccc23)cc(OC)c1OC [CBK085741]  106%
14. CCN(CC(O)COc1cc(C)c(Cl)c(C)c1)S(=O)(=O)O (centres unmarked) [CBK026767N]  106%
15. Fc1ccc(-c2cc(Nc3ccccc3)ncn2)cc1F [CBK090913]  105%
16. Cc1c(C(N)=O)sc(NC(=O)c2cccnc2)c1C#N [CBK268163]  105%
17. CC(=O)O/C(N)=N/c1nonc1N [CBK021885]  105%
18. Cc1ccc(S(=O)(=O)CCc2noc(-c3n[nH]c4ccccc34)n2)cc1 [CBK288598]  104%
19. CCCCN1CCC(CNc2cc(C(F)(F)F)c3scc(C(=O)NC4CCC4)c3n2)CC1 [CBK034026C]  103%
20. CCCCOC(=O)c1ccc(NC(=O)c2cc(-c3ccco3)nc3c2c(C)nn3C)cc1 [CBK295313]  103%
21. CCC1CCc2c(sc(NC(=O)C3C4CCC(C4=C(C)C)C3C(=O)O)c2C(=O)OC)C1 (centres unmarked) [CBK265424]  102%
22. O=C(NNCc1ccccc1)c1cc(Br)cnc1N1CCN(C(=O)c2ccco2)CC1 [CBK076460]  101%
23. Cn1c(=O)n(Cc2ccc(Cl)cc2)c2cccnc21 [CBK282333]  101%
24. CN1CCC(Cc2nc(-c3ccc(Cl)s3)n(CCO)n2)CC1 [CBK307025]  100%
25. Cc1cc2nc3s/c(=C\c4ccc(-c5ccc(O)c(C(=O)O)c5)o4)c(=O)n3c2cc1C [CBK262538]  100%
26. C=CCOc1nc2c(=O)[nH]c(NC(=O)C(C)C)nc2n1[C@H]1C[C@@H](O)[C@@H](CO)O1 [CBK201216]  100%
27. CC(=O)Nc1ccc(-c2ccc(COC3CCN(C(=O)OC(C)(C)C)CC3)cc2)cc1 [CBK138215]  99.8%
28. COc1ccc(C(=O)Nc2ccc(N3CCN(C(=O)C(C)(C)C)CC3)cc2)cc1 [CBK270266]  99%
29. COc1ccccc1-c1cc(N2CCN(CC(=O)N(C)c3ccccc3)CC2)ncn1 [CBK091136]  99%
30. O=C(c1ccccc1)N1C[C@@H]2CCCCN(Cc3cccnc3)[C@@H]2C1 [CBK285512]  98.7%
31. CCNC(=O)C1CCN(Cc2nc(-c3cc(OC)ccc3F)oc2C)C1 (centres unmarked) [CBK307040]  98.4%
32. CC(C)(C)OC(=O)NCc1ccc(-c2cc(N3CCN(C(=O)c4ccco4)CC3)ncn2)cc1 [CBK091107]  98.3%
33. Cc1ccc(S(=O)(=O)NCc2c(-c3ccccc3)c3cc(Br)ccc3[nH]c2=O)cc1 [CBK265231]  98.3%
34. NC(=O)CN1CCC(Oc2cncc(OCC3COc4ccccc4O3)n2)C1 (centres unmarked) [CBK084372]  98.2%
35. C#CCNC(=O)N(C)C1CCN(c2ncnc3ccccc23)CC1 [CBK306109]  97.6%
36. O=C(Cn1c(C2CCCNC2)cc2cccnc21)NC1CCCC1 (centres unmarked) [CBK285059]  97.5%
37. FC(F)(F)c1ccnc(OCCN2CCNCC2)c1 [CBK113459]  97.4%
38. O=C(c1ccccc1)c1nnsc1-c1ccccc1 [CBK008193]  97%
39. COCCNc1nc(-c2cc(C(C)C)ccc2OC)ccc1C(=O)Nc1cccc(OC)c1 [CBK105904]  96.9%
40. CCN(C(=O)Nc1ccc(-c2ccco2)cc1)C1CCOCC1 [CBK306916]  95.8%
41. OC(COc1cccc2c1CCCC2)CN1CCC(Cc2ccccc2)CC1 (centres unmarked) [CBK003829]  94.7%
42. CN1CCC2(CC1)OCc1cc(-c3cccnc3)ccc1O2 [CBK061020]  94.6%
43. CC(=O)NCc1cccc(-c2cc(CO)cnc2-c2ccc(Cl)cc2)c1 [CBK161445]  94.6%
44. CNC(=O)c1nc(NC)oc1C [CBK059214]  94.4%
45. Cc1cc(NS(=O)(=O)c2cccc(C(F)(F)F)c2)n(C)n1 [CBK067244]  94.1%
46. CC(C)NS(=O)(=O)c1ccc(NS(=O)(=O)c2ccc(F)c(C(=O)O)c2)cc1 [CBK297533]  93.6%
47. Cc1ccccc1C(c1cnccn1)N(C)C(=O)C1CCN(S(=O)(=O)c2cn(C)cn2)CC1 (centres unmarked) [CBK060264]  93.1%
48. Cc1ccc(-c2noc(CSc3nnc(CCc4ccccc4)n3-c3ccccc3)n2)cc1 [CBK268493]  93.1%
49. Cc1c(NC(=O)c2cn3c4c(c(N5CCN(C)CC5)c(F)cc4c2=O)OCN3C)c(=O)n(-c2ccccc2)n1C [CBK263061]  92.9%
50. CCOC(=O)c1sc(NS(=O)(=O)c2cccc(Cl)c2C)nc1-c1ccccc1 [CBK000749]  92.7%
51. CCOCCCNC(=O)c1ncoc1-c1ccc(F)cc1 [CBK282353]  92.6%
52. CN1CCN(C(=O)CC[C@@H]2CNC(=O)[C@@H]3C[C@H](NC(=O)c4cccc(F)c4)CN23)CC1 [CBK289015]  92.2%
53. O=C1NC2(CCOCC2)C(=O)N1Cc1ncc(-c2cccs2)o1 [CBK304187]  92%
54. CCCC(=O)Nc1nnc(-c2ccc(Cl)cc2)o1 [CBK287594]  91.8%
55. CC(=O)Nc1ccc(NC(=O)CSC2=C(C#N)C(c3ccco3)C3=C(CCCC3=O)N2)cc1 (centres unmarked) [CBK264462]  91.8%
56. Cc1cc2nnc(SC(C)c3nc(-c4ccccc4)no3)n2c(C)n1 (centres unmarked) [CBK298306]  91.7%
57. CCc1ccc(Oc2c[nH]nc2-c2ccc(OCc3cnn(-c4ccccc4)c3)cc2O)cc1 [CBK266233]  91.4%
58. CC1CCc2c(sc(NC(=O)Cn3cnc([N+](=O)[O-])n3)c2C(N)=O)C1 (centres unmarked) [CBK263064]  91.3%
59. CCCn1nc(C)c(-c2cncn2CCN(C)C2CCCC2)c1C [CBK281790]  91.3%
60. Cc1cccc(C(=O)N2CCN(Cc3cc(=O)n4ccsc4n3)CC2)c1 [CBK305037]  91%
61. Cc1cc(C)c(C)c(S(=O)(=O)NCc2ccc(C(=O)Nc3ccncc3)cc2)c1C [CBK267193]  90.5%
62. CCCC(=O)NCC1Cc2cc(F)cc(-c3ccc(C(C)=O)s3)c2O1 (centres unmarked) [CBK306945]  90.3%
63. O=C(Cn1c(=O)n(Cc2cccs2)c2ncccc21)NCC1CC1 [CBK283899]  89.3%
64. CCNC(=O)N[C@H]1CO[C@H]2[C@@H]1OC[C@@H]2Nc1nccc(-c2ccc(OC)cc2)n1 [CBK289528]  89.3%
65. O=C(O)c1ccc(Oc2ccc([N+](=O)[O-])cc2)cc1C(=O)O [CBK260961]  89%
66. Cc1nc(C2CCCN(C(=O)c3cscn3)C2)c2sccn12 (centres unmarked) [CBK282236]  88.2%
67. CCCc1ccc(S(=O)(=O)Nc2nc(-c3cccc([N+](=O)[O-])c3)cs2)cc1 [CBK000987]  88.1%
68. COc1ccc(C(=O)NC(c2ccccc2Cl)c2cc(Cl)c3cccnc3c2O)cc1 (centres unmarked) [CBK264036]  88%
69. COc1ccc([C@@]23CC[C@@H](C(=O)Nc4ccc(C(F)(F)F)cn4)C[C@@H]2N(C)CC3)cc1OC [CBK046310T]  87.3%
70. Cc1cc2ccccc2n2c(=O)n(CC(=O)N3CCCCC3C)nc12 (centres unmarked) [CBK283882]  87.1%
71. c1cc(-c2nccnc2OCCn2ccnc2)ccn1 [CBK106737]  87%
72. CN1CCC(N(C)Cc2ccc3c(c2)OCO3)CC1 [CBK261564]  86.8%
73. COc1cc(NC(=O)CS(=O)(=O)c2ccccc2)c(OC)cc1Cl [CBK269471]  86.7%
74. CC1CC1C(=O)N1CCCC(c2nn(C)c3ncccc23)C1 (centres unmarked) [CBK282167]  85.7%
75. COC(=O)c1ccc(F)c(NC(=O)C2CCCC2)c1 [CBK296640]  85.5%
76. N#CCSc1nnc(NC(=O)Nc2ccccc2)s1 [CBK028792]  85.3%
77. O=C(c1nccs1)C1CCN(C(=O)Cc2ccc(Cl)cc2)CC1 [CBK284160]  84.1%
78. O=C(CC1S/C(=N/N=C/c2cn(Cc3ccccc3)c3ccccc23)NC1=O)Nc1ccccc1 (centres unmarked) [CBK264529]  84%
79. CC(C)NC(=O)Cn1c(=O)n(Cc2cccs2)c2ncccc21 [CBK283900]  83.6%
80. COc1cc(NS(=O)(=O)c2ccc(N/C=C3/CCc4ccccc4C3=O)cc2)nc(OC)n1 [CBK263376]  82.4%
81. CC1CCCN(Cc2nc3c(c(=O)n(C)c(=O)n3C)n2CC(N)=O)C1 (centres unmarked) [CBK306064]  82.3%
82. Oc1ccc(-n2cc(-c3ccc(F)cc3)nn2)cc1 [CBK113126]  82%
83. CSc1nc(O)c(C(c2cccc([N+](=O)[O-])c2)c2c(O)nc(SC)nc2O)c(O)n1 [CBK265370]  80.5%
84. CN(C)Cc1cc(-c2ccc(CNC(=O)C3CC3)cc2)nn1C [CBK283470]  80.5%

Same assay, conditions: human, hela cells, % viability, bulk resorufin, single well

In order of falling viability at 28.5 h, 10 µM:
1. O=C1NC(=O)C(CCc2ccccn2)(Cc2cccc(Cl)c2Cl)C(=O)N1c1ccc(Br)cc1 (centres unmarked) [CBK266359]  94.2%
2. CCC1(c2ccccc2)C(=O)NC(=O)N(CCN2CCOCC2)C1=O (centres unmarked) [CBK288379]  88%
